In PubChem BioAssay (NCI) one finds TGI data, which are given here for 16 compounds.

Each structure is given as a SMILES string.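 Growth conditions: 96-well plates. Treatment: test compound, 48 hours, 5 concentrations. Analysis: linear interpolation between bracketing concentrations; unreached endpoints set to highest concentration. The concentration for full growth arrest is given as TGI.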

In the first assay the test system is HOP-92 NSCLC. The assay can be described thus: DTP human tumour cell line panel, 48 h.
On to `C/C(=N/NC(=S)Nc1ccc(Cl)cc1)c1cccc(/C(C)=N\NC(=S)Nc2ccc(Cl)cc2)n1`, for which the TGI was > 100 µM.

`O=C(O/C=C\OC1CCCC1(c1ccccc1)c1ccccc1)c1ccccc1` (stereo not drawn) showed a concentration for total growth inhibition (TGI) of 4.97 µM.

The test system of another assay is HS 578T breast. The assay can be described thus: DTP human tumour cell line panel, 48 h.
As for `Fc1ccc(C(=C2CCN(CCc3ccc4[nH]c(=S)[nH]c4c3)CC2)c2ccc(F)cc2)cc1`, the total growth inhibition concentration (TGI) was determined as 40.8 µM.

Turning to `COC1=CC2C(c3cc4ccccc4n3S(=O)(=O)c3ccccc3)CC1CN2C(=O)OCc1ccccc1` (stereo not drawn), the TGI was > 100 µM.

In turn, `O=C(O/C=C\OC1CCCC1(c1ccccc1)c1ccccc1)c1ccccc1` (stereo not drawn) registered a TGI of 23.6 µM.

The test system of another assay is HT29 colon. The assay can be described thus: DTP human tumour cell line panel, 48 h.
As for `Fc1ccc(C(=C2CCN(CCc3ccc4[nH]c(=S)[nH]c4c3)CC2)c2ccc(F)cc2)cc1`, the total growth inhibition concentration (TGI) turned out to be 3.82 µM.

Regarding `S=c1[nH]c(=S)c2nnn(-c3ccccc3)c2[nH]1`, the concentration for total growth inhibition (TGI) is > 100 µM.

Consider `Cc1cc(C2CC(O)C(CO)O2)c(F)cc1F` (stereo not drawn), for which the concentration for total growth inhibition (TGI) is > 100 µM.

`CC(=O)O[C@H]1CC[C@@]2(C)C(=CC[C@@H]3[C@@H]2CC[C@]2(C)NC(=O)/C(=C\c4ccccc4)C[C@@H]32)C1` displayed a TGI of 31.2 µM.

`CNS(=O)(=O)NNS(=O)(=O)c1ccc(Br)cc1`: the total growth inhibition concentration (TGI) was > 100 µM.

Turning to `CC(=O)O[C@H]1CCC2[C@@H]3CCC4Nc5oncc5C[C@]4(C)C3CC[C@@]21C` (stereo partly drawn), the TGI is > 10 µM.

With `Cc1ccc(NC(=O)CSc2nnc(-c3ccc(N=Cc4ccc(Cl)cc4)cc3)o2)cc1`, the total growth inhibition concentration (TGI) was > 100 µM.

For `COC1=CC2C(c3cc4ccccc4n3S(=O)(=O)c3ccccc3)CC1CN2C(=O)OCc1ccccc1` (stereo not drawn), the concentration for total growth inhibition (TGI) was determined as 65.1 µM.

With `Cc1c(O)c(OC2OC(CO)C(O)C(O)C2O)cc2c1CC[C@@H]1C2(C)C(=O)C[C@]2(C)[C@@H]([C@@](C)(O)C(=O)CCC(C)(C)O)[C@H](O)C[C@@]12C` (stereo partly drawn), the TGI was > 100 µM.

For the compound `CCC1CCc2c(c(=O)oc3c2cc(OC)c2cccc(OC)c23)C1` (stereo not drawn), the concentration for total growth inhibition (TGI) was > 100 µM.

`Cn1c(=O)oc2cc(C(O)CN3CCN(Cc4ccccn4)CC3)c(Cl)cc21` (stereo not drawn): the TGI is > 100 µM.

For the compound `COC(=O)[C@H](Cc1c[nH]c2ccccc12)NC(=O)c1ccc(CNC(=O)/C(C)=C/c2ccccc2)cc1`, the total growth inhibition concentration (TGI) was > 100 µM.

With `C/C(=N/NC(=S)Nc1ccc(Cl)cc1)c1cccc(/C(C)=N\NC(=S)Nc2ccc(Cl)cc2)n1`, the concentration for total growth inhibition (TGI) is > 100 µM.

Turning to `O=C(O/C=C\OC1CCCC1(c1ccccc1)c1ccccc1)c1ccccc1` (stereo not drawn), the total growth inhibition concentration (TGI) was 13.8 µM.

For a further assay, the system named is IGROV1 ovarian. Nature of the assay: DTP human tumour cell line panel, 48 h.
In turn, `Fc1ccc(C(=C2CCN(CCc3ccc4[nH]c(=S)[nH]c4c3)CC2)c2ccc(F)cc2)cc1` had a concentration for total growth inhibition (TGI) of 17 µM.

Consider `S=c1[nH]c(=S)c2nnn(-c3ccccc3)c2[nH]1`, for which the concentration for total growth inhibition (TGI) was > 100 µM.

On to `CC(C)CC(NC(=O)C(CI)Cc1ccccc1)C(=O)Nc1ccccc1` (stereo not drawn), for which the total growth inhibition concentration (TGI) was > 100 µM.

Regarding `Cc1cc(C2CC(O)C(CO)O2)c(F)cc1F` (stereo not drawn), the total growth inhibition concentration (TGI) is > 100 µM.

As for `CC(=O)O[C@H]1CC[C@@]2(C)C(=CC[C@@H]3[C@@H]2CC[C@]2(C)NC(=O)/C(=C\c4ccccc4)C[C@@H]32)C1`, the TGI was found to be 42 µM.

On to `CNS(=O)(=O)NNS(=O)(=O)c1ccc(Br)cc1`, for which the TGI is > 100 µM.

With `CC(=O)O[C@H]1CCC2[C@@H]3CCC4Nc5oncc5C[C@]4(C)C3CC[C@@]21C` (stereo partly drawn), the TGI is > 10 µM.

As to `COC1=CC2C(c3cc4ccccc4n3S(=O)(=O)c3ccccc3)CC1CN2C(=O)OCc1ccccc1` (stereo not drawn), the concentration for total growth inhibition (TGI) was > 100 µM.

As for `Cc1c(O)c(OC2OC(CO)C(O)C(O)C2O)cc2c1CC[C@@H]1C2(C)C(=O)C[C@]2(C)[C@@H]([C@@](C)(O)C(=O)CCC(C)(C)O)[C@H](O)C[C@@]12C` (stereo partly drawn), the TGI is > 100 µM.

Regarding `CCC1CCc2c(c(=O)oc3c2cc(OC)c2cccc(OC)c23)C1` (stereo not drawn), the TGI was > 100 µM.

Take `Cn1c(=O)oc2cc(C(O)CN3CCN(Cc4ccccn4)CC3)c(Cl)cc21` (stereo not drawn): the total growth inhibition concentration (TGI) was > 100 µM.

On to `COC(=O)[C@H](Cc1c[nH]c2ccccc12)NC(=O)c1ccc(CNC(=O)/C(C)=C/c2ccccc2)cc1`, for which the concentration for total growth inhibition (TGI) was > 100 µM.

As to `C/C(=N/NC(=S)Nc1ccc(Cl)cc1)c1cccc(/C(C)=N\NC(=S)Nc2ccc(Cl)cc2)n1`, the TGI was > 100 µM.

With `O=C(O/C=C\OC1CCCC1(c1ccccc1)c1ccccc1)c1ccccc1` (stereo not drawn), the total growth inhibition concentration (TGI) was 9.37 µM.

For a further assay, the system named is M14 melanoma. The assay can be described thus: DTP human tumour cell line panel, 48 h.
As to `Fc1ccc(C(=C2CCN(CCc3ccc4[nH]c(=S)[nH]c4c3)CC2)c2ccc(F)cc2)cc1`, the TGI amounted to 2.9 µM.

`S=c1[nH]c(=S)c2nnn(-c3ccccc3)c2[nH]1`: the total growth inhibition concentration (TGI) is > 100 µM.

Consider `CC(C)CC(NC(=O)C(CI)Cc1ccccc1)C(=O)Nc1ccccc1` (stereo not drawn), for which the TGI was > 100 µM.

In the case of `Cc1cc(C2CC(O)C(CO)O2)c(F)cc1F` (stereo not drawn), the TGI is > 100 µM.

Compound `CC(=O)O[C@H]1CC[C@@]2(C)C(=CC[C@@H]3[C@@H]2CC[C@]2(C)NC(=O)/C(=C\c4ccccc4)C[C@@H]32)C1` came in with a TGI of 30.5 µM.

On to `N#CC1=C(Nc2ccccc2)SC=C(c2ccccc2)NC1=NCc1ccccc1`, for which the TGI was > 100 µM.

With `CNS(=O)(=O)NNS(=O)(=O)c1ccc(Br)cc1`, the concentration for total growth inhibition (TGI) is > 100 µM.

Take `CC(=O)O[C@H]1CCC2[C@@H]3CCC4Nc5oncc5C[C@]4(C)C3CC[C@@]21C` (stereo partly drawn): the concentration for total growth inhibition (TGI) is > 10 µM.

Turning to `Cc1ccc(NC(=O)CSc2nnc(-c3ccc(N=Cc4ccc(Cl)cc4)cc3)o2)cc1`, the TGI was > 100 µM.

Compound `COC1=CC2C(c3cc4ccccc4n3S(=O)(=O)c3ccccc3)CC1CN2C(=O)OCc1ccccc1` (stereo not drawn) came in with a total growth inhibition concentration (TGI) of 51.2 µM.

As to `Cc1c(O)c(OC2OC(CO)C(O)C(O)C2O)cc2c1CC[C@@H]1C2(C)C(=O)C[C@]2(C)[C@@H]([C@@](C)(O)C(=O)CCC(C)(C)O)[C@H](O)C[C@@]12C` (stereo partly drawn), the concentration for total growth inhibition (TGI) was > 100 µM.

Regarding `CCC1CCc2c(c(=O)oc3c2cc(OC)c2cccc(OC)c23)C1` (stereo not drawn), the TGI is > 100 µM.

On to `Cn1c(=O)oc2cc(C(O)CN3CCN(Cc4ccccn4)CC3)c(Cl)cc21` (stereo not drawn), for which the TGI is > 100 µM.

For `COC(=O)[C@H](Cc1c[nH]c2ccccc12)NC(=O)c1ccc(CNC(=O)/C(C)=C/c2ccccc2)cc1`, the total growth inhibition concentration (TGI) is 30.1 µM.

`C/C(=N/NC(=S)Nc1ccc(Cl)cc1)c1cccc(/C(C)=N\NC(=S)Nc2ccc(Cl)cc2)n1`: the TGI was 8.53 µM.

In turn, `O=C(O/C=C\OC1CCCC1(c1ccccc1)c1ccccc1)c1ccccc1` (stereo not drawn) yielded a TGI of 9.08 µM.

In another assay the test system is MDA-MB-231 breast. Nature of the assay: DTP human tumour cell line panel, 48 h.
`Fc1ccc(C(=C2CCN(CCc3ccc4[nH]c(=S)[nH]c4c3)CC2)c2ccc(F)cc2)cc1` came in with a TGI of 15 µM.

Consider `CC(C)CC(NC(=O)C(CI)Cc1ccccc1)C(=O)Nc1ccccc1` (stereo not drawn), for which the TGI was > 100 µM.

For the compound `Cc1cc(C2CC(O)C(CO)O2)c(F)cc1F` (stereo not drawn), the TGI was > 100 µM.

Compound `CC(=O)O[C@H]1CC[C@@]2(C)C(=CC[C@@H]3[C@@H]2CC[C@]2(C)NC(=O)/C(=C\c4ccccc4)C[C@@H]32)C1` showed a TGI of 53 µM.

Consider `N#CC1=C(Nc2ccccc2)SC=C(c2ccccc2)NC1=NCc1ccccc1`, for which the TGI was > 100 µM.

Turning to `CC(=O)O[C@H]1CCC2[C@@H]3CCC4Nc5oncc5C[C@]4(C)C3CC[C@@]21C` (stereo partly drawn), the TGI was > 10 µM.

In the case of `COC1=CC2C(c3cc4ccccc4n3S(=O)(=O)c3ccccc3)CC1CN2C(=O)OCc1ccccc1` (stereo not drawn), the TGI is 58.7 µM.

With `Cc1c(O)c(OC2OC(CO)C(O)C(O)C2O)cc2c1CC[C@@H]1C2(C)C(=O)C[C@]2(C)[C@@H]([C@@](C)(O)C(=O)CCC(C)(C)O)[C@H](O)C[C@@]12C` (stereo partly drawn), the concentration for total growth inhibition (TGI) is > 100 µM.

`Cn1c(=O)oc2cc(C(O)CN3CCN(Cc4ccccn4)CC3)c(Cl)cc21` (stereo not drawn): the total growth inhibition concentration (TGI) is > 100 µM.

`COC(=O)[C@H](Cc1c[nH]c2ccccc12)NC(=O)c1ccc(CNC(=O)/C(C)=C/c2ccccc2)cc1` came in with a concentration for total growth inhibition (TGI) of 60.6 µM.

The compound `C/C(=N/NC(=S)Nc1ccc(Cl)cc1)c1cccc(/C(C)=N\NC(=S)Nc2ccc(Cl)cc2)n1` returned a TGI of 48.4 µM.

`O=C(O/C=C\OC1CCCC1(c1ccccc1)c1ccccc1)c1ccccc1` (stereo not drawn) returned a concentration for total growth inhibition (TGI) of 6.17 µM.

The test system of another assay is MDA-MB-435. Nature of the assay: DTP human tumour cell line panel, 48 h.
With `CC(C)CC(NC(=O)C(CI)Cc1ccccc1)C(=O)Nc1ccccc1` (stereo not drawn), the concentration for total growth inhibition (TGI) was > 100 µM.

As for `Cc1cc(C2CC(O)C(CO)O2)c(F)cc1F` (stereo not drawn), the TGI was > 100 µM.

As to `CC(=O)O[C@H]1CC[C@@]2(C)C(=CC[C@@H]3[C@@H]2CC[C@]2(C)NC(=O)/C(=C\c4ccccc4)C[C@@H]32)C1`, the TGI stood at 33.2 µM.

Consider `N#CC1=C(Nc2ccccc2)SC=C(c2ccccc2)NC1=NCc1ccccc1`, for which the TGI is > 100 µM.

Consider `CC(=O)O[C@H]1CCC2[C@@H]3CCC4Nc5oncc5C[C@]4(C)C3CC[C@@]21C` (stereo partly drawn), for which the TGI is > 10 µM.

`COC1=CC2C(c3cc4ccccc4n3S(=O)(=O)c3ccccc3)CC1CN2C(=O)OCc1ccccc1` (stereo not drawn) showed a TGI of 75.9 µM.

`Cc1c(O)c(OC2OC(CO)C(O)C(O)C2O)cc2c1CC[C@@H]1C2(C)C(=O)C[C@]2(C)[C@@H]([C@@](C)(O)C(=O)CCC(C)(C)O)[C@H](O)C[C@@]12C` (stereo partly drawn): the TGI was > 100 µM.

As usually defined, the TGI is the concentration at which net growth stops.
